From patent publication US20240181049A1, “HARNESSING THE POWER OF MICROBIOTA AND METABOLITES FOR THE TREATMENT OF CANCER” (UTI LIMITED PARTNERSHIP, priority 2019, published 2024)

System: MC38 tumor cells
Assay: MC38 tumors in GF mice: inosine with anti-CTLA-4 with or without CpG
Format: in vivo
Procedure: FIG. 5A-5L: Inosine promotes Th1 activation and anti-tumor immunity. (a) Schematic overview of experimental setup to assess the effect of inosine on Th1 activation in vivo. (b, c) Representative dot plots and quantification (left and right panel respectively) of T-bet^+IFN-γ^+CD3ε^+ (b) CD8^+ or (c) CD4^+ T cells in the MLN. (d) Schematic overview of experimental setup to assess the effect of inosine on anti-tumor immunity. Upon palpable tumors, mice were treated with 100 μg anti-CTLA-4 i.p. (5 times every 72 hours) and in some groups 20 μg CpG i.p. (5 times every 72 hours). In addition, inosine (300 mg/KG/BW) or PBS was given daily orally (O), through gavage or systemically (S) through i.p. injection. (e) Tumor weight and quantification of IFN-γ^+ cells amongst (f) CD4^+ or (g) CD8^+ cells are shown. (h). Schematic overview to assess the requirement of A2AR signaling for inosine-induced anti-tumor immunity. 1×10^6 MC38 cells (s.c.) and WT or A2AR-deficient 1×10^7 T cells (i.v. 6×10^6 CD4^+ and 4×10^6 CD8^+ cells) were injected. Upon palpable tumors, mice were treated with 100 μg anti-CTLA-4, 20 μg CpG (4 times every 72 hours, both i.p.) and inosine (daily, 300 mg/KG/BW, through gavage). (i) Pictures of tumors are shown at day 20. scale bars: 1 cm. (j) Tumor weight and quantification of IFN-γ^+ in (k) CD8^+ or (l) CD4^+ cells in the tumor are shown. Data are mean±SEM and pooled from two individual experiments (a-l) 10-11 mice/group. *, P<0.05; **, P<0.01; ***, P<0.001.
FIG. 18A-18H: Classical dendritic cells are required for bacteria dependent effect of ICB. (a) IL-12p70 expression in classical dendritic cells (MHCII^+CD11c^+B220^−CD64^−) and macrophages (MHCII^+CD11c^+B220^−, CD64^+) (b) Quantification of IL-12p70 expression in macrophages and cDCs. Classical dendritic cells were depleted with diphtheria toxin (DT) in bone marrow chimeric mice after MC38 tumor challenge, followed by anti-CTLA-4 treatment (see FIG. 4h for experimental setup). Quantification of splenic (c) IFN-γ^+CD8^+ or (d) Ki-67^+ CD8^+ T cells. (e and f) same as (c and d) but for CD4^+ T cells. (g and h) 1×10^6 MC38 cells (s.c.) were injected in GF mice. Seven days later upon palpable tumors, mice were treated with 100 μg anti-CTLA-4 i.p. (5 times every 72 hours) and in some groups 20 μg CpG i.p. (5 times every 72 hours). In addition, inosine (300 mg/KG/BW) or PBS was given daily orally (O), through gavage or systemically (S) through i.p. injection. Quantification of Ki-67^+ cells is shown. […]
To evaluate the effect of inosine on Th1 activation, mice received 30 μg CpG, […] EndoFit Ovalbumin (both Invivogen) and 2 μg OVA323-339 (Sigma) i.p. and 24 hours later mice received 300 mg/kg/BW inosine or PBS as a control through i.p. injection. T cell differentiation was assessed 48 hours later. […]

[1] = with anti-CTLA-4, in the absence of CpG
[2] = with anti-CTLA-4 and CpG, oral or systemic, vs PBS

**Q.** With OC[C@H]1O[C@@H](n2cnc3c(O)ncnc32)[C@H](O)[C@@H]1O [inosine] as the compound, how does the anti-tumor immunity [1] read?
**A.** reduced anti-tumor immunity

**Q.** What about the tumor weight [1] of the same compound?
**A.** increased tumor weight

**Q.** What about the anti-tumor immunity [2] of the same compound?
**A.** increased anti-tumor immunity

**Q.** What about the tumor weight [2] of the same compound?
**A.** reduction of tumor weight
